Values of other authors, collected in patent US20030135108A1, “High throughput screening methods using magnetic resonance imaging agents” (priority 2001, published 2003).

Conditions: thermodynamic stability of the Gd(III) chelate complex

| stability constant (K), formation constant, logK | Structure (SMILES) |
| --- | --- |
| 22.4 | O=C([O-])CN(CCN(CC(=O)[O-])CC(=O)[O-])CCN(CC(=O)[O-])CC(=O)[O-].[Gd+3] [Gd(DTPA)^2−] |
| 28.5 | O=C([O-])CN1CCN(CC(=O)[O-])CCN(CC(=O)O)CCN(CC(=O)[O-])CC1.[Gd+3] [Gd-DOTA] |
